The results in this text go back to patent US8101601B2, “Aminoacyl prodrug derivatives and medicaments for the treatment of thromboembolitic disorders” (Bayer Pharma Aktiengesellschaft, priority 2007, dated 2012).

Series [1] is described as follows: Stability in buffer at various pH values (HPLC, 37° C., 24 h). It is filed as physicochemical. On the procedure: 0.3 mg of the test substance is weighed into a 2 ml HPLC vial and 0.5 ml of acetonitrile is added. The substance is dissolved by putting the sample vessel in an ultrasonic bath for about 10 seconds. Then 0.5 ml of the respective buffer solution is added, and the sample is again treated in the ultrasonic bath.
• pH 4.0:1 liter of Millipore water is adjusted to pH 4.0 with 1 N hydrochloric acid; • pH 7.4: 90 g of sodium chloride, 13.61 g of potassium dihydrogen phosphate and 83.35 g of 1 M sodium hydroxide solution are made up to 1 liter with Millipore water and then diluted 1:10.
5 μl portions of the test solution are analysed by HPLC for their content of unchanged test substance every hour over a period of 24 hours at 37° C. The percentage areas of the appropriate peaks are used for quantification.
Agilent 1100 with DAD (G1314A), binary pump (G1312A), autosampler (G1329A), column oven (G1316A), thermostat (G1330A); column: Kromasil 100 C18, 125 mm×4.6 mm, 5 μm; column temperature: 30° C.; eluent A: water+5 ml of perchloric acid/liter, eluent B: acetonitrile.
The ratios of the peak areas (F) at the respective time points in relation to the peak areas at the starting time are shown in Table 2 for representative exemplary embodiments: […]

A short description of series [2]: In vitro stability in rat plasma (LC/MS-MS detection). Format: in vitro ADME, Wistar rats. Conditions: Wistar rat plasma, 37° C. The method, then: A defined plasma volume (e.g. 2.0 ml) is warmed to 37° C. in a closed test tube in a waterbath. After the intended temperature is reached, a defined amount of the test substance is added as solution (volume of the solvent not more than 2% of the plasma volume). The plasma is shaken and a first sample (50-100 μl) is immediately taken. Then 4-6 further aliquots are taken in the period up for 2 h after the start of incubation.
Acetonitrile is added to the plasma samples to precipitate proteins. After centrifugation, the test substance and, where appropriate, known cleavage products of the test substance in the supernatant are determined quantitatively with a suitable LC/MS-MS method.
The concentrations c of the compound of Example 6 and of the active ingredient compound (A) liberated therefrom determined at various times in the plasma of Wistar rats are shown in Table 3:
The concentrations c of the compound of Example 13 and of the active ingredient compound (A) liberated therefrom determined at various times in the plasma of Wistar rats are shown in Table 4: […]

A short description of series [3]: Determination of the solubility (suspension shaken 24 h at room temperature, HPLC). It is filed as physicochemical. Conditions: thermodynamic from solid. On the procedure: […] This suspension is shaken at room temperature for 24 h. After ultracentrifugation at 224 000 g for 30 min, the supernatant is diluted with DMSO and analysed by HPLC. A two-point calibration plot of the test compound in DMSO is used for quantification.
Agilent 1100 with DAD (G1315A), quat. pump (G1311A), autosampler CTC HTS PAL, degasser (G1322A) and column thermostat (G1316A); column: Zorbax Extend-C18 3.5μ; temperature: 40° C.; eluent A: water+5 ml of perchloric acid/liter, eluent B: acetonitrile; flow rate: 0.7 ml/min; gradient: 0-0.5 min 98% A, 2% B; ramp 0.5-4.5 min 10% A, 90% B; 4.5-6 min 10% A, 90% B; ramp 6.5-6.7 min 98% A, 2% B; 6.7-7.5 min 98% A, 2% B.

A short description of series [4]: In vitro stability in rat plasma (HPLC detection). Format: in vitro ADME. The note with it: 37° C., read-out: half-life of degradation to liberate compound (A). On the procedure: 1 mg of substance is dissolved in 1.25 ml of dimethyl sulphoxide. Then 1.25 ml of water are added. 500 μl of this sample solution are mixed with 500 μl of rat plasma at 37° C. and shaken. A first sample (10 μl) is immediately taken for HPLC analysis. In the period up to 2 h after the start of incubation, further aliquots are taken after 2, 5, 10, 30, 60 and 90 min, and the content of the respective test substance and of the active ingredient compound (A) liberated therefrom is determined.
Agilent 1100 with DAD (G1314A), binary pump (G1312A), autosampler (G1329A), column oven (G1316A), thermostat (G1330A); column: Kromasil 100 C18, 250 mm×4.6 mm, 5 μm; column temperature: 30° C.; eluent A: water+5 ml of perchloric acid/liter, eluent B: acetonitrile.

[5] abbreviates: buffer pH 4, 37° C., hydrochloride.
Setting [6] is: 5% dextrose adjusted to pH 4 with hydrochloric acid, pH 4, saline or isotonic.

Usually solubility stands for the dissolved amount per volume that the medium holds. A lower solubility goes with little dissolved substance. One may read the half-life as the time in which the quantity being followed falls by half.

Each structure is given as a SMILES string. Counter-ions that a name gives are not always drawn. Bounds are passed on as bounds.

On to `CC(C)[C@@H](N)C(=O)OCC(=O)N(C[C@H]1CN(c2ccc(N3CCOCC3=O)cc2)C(=O)O1)C(=O)c1ccc(Cl)s1` [Example 6, 2-[[(5-Chloro-2-thienyl)carbonyl]({(5S)-2-oxo-3-[4-(3-oxomorpholin-4-yl)phenyl]-1,3-oxazolidin-5-yl}methyl)amino]-2-oxoethyl D-valinate hydrochloride], for which the “% test substance after 4 h [F(t = 4 h) × 100/F(t = 0 h)]” value (“% test substance after 4 h” for short) was 100% in series [1] (buffer pH 4, 37° C.) and 90% in series [1] (buffer pH 7.4, 37° C.). The “% Test substance after 24 h [F(t = 24 h) × 100/F(t = 0 h)]” value (“% Test substance after 24 h” below) in series [1] (buffer pH 4, 37° C.) came to 98%; in series [1] (buffer pH 7.4, 37° C.), 59%. Further, the “c of test substance” value in series [2] (incubation time 0 h) worked out at 0.403 mg/L; in series [2] (incubation time 0.08 h), 0.0756 mg/L; in series [2] (incubation time 0.17 h), 0.0079 mg/L. This compound also had a solubility at 24 h in series [3] (dilute hydrochloric acid (pH 4), pH 4, aqueous buffer, room temperature, 24 h) of 860 µg/mL.
As for `CNCCCC(=O)N(C[C@H]1CN(c2ccc(N3CCOCC3=O)cc2)C(=O)O1)C(=O)c1ccc(Cl)s1` [Example 13, 5-Chloro-N-[4-(methylamino)butanoyl]-N-({(5S)-2-oxo-3-[4-(3-oxomorpholin-4-yl)phenyl]-1,3-oxazolidin-5-yl}methyl)thiophene-2-carboxamide hydrochloride], in series [1] (setting [5]), the “% test substance after 4 h” value came to 99% and the “% Test substance after 24 h” value amounted to 91%. Also, the half-life at 0.2 mg/ml in series [4] was under 2 min. Also, in series [2] (incubation time 0 h), the “c of test substance” value is 0.5 mg/L. The solubility at 24 h in series [3] (setting [6]) was determined as 2700 µg/mL.
On to `CNCCCCC(=O)N(C[C@H]1CN(c2ccc(N3CCOCC3=O)cc2)C(=O)O1)C(=O)c1ccc(Cl)s1` [Example 17, 5-Chloro-N-[5-(methylamino)pentanoyl]-N-({(5S)-2-oxo-3-[4-(3-oxomorpholin-4-yl)phenyl]-1,3-oxazolidin-5-yl}methyl)thiophene-2-carboxamide hydrochloride], for which, in series [1] (setting [5]), the “% test substance after 4 h” value came to 83% and the “% Test substance after 24 h” value was found to be 55%. The half-life at 0.2 mg/ml in series [4] is under 2 min.
In the case of `NCCCCC(=O)N(C[C@H]1CN(c2ccc(N3CCOCC3=O)cc2)C(=O)O1)C(=O)c1ccc(Cl)s1` [Example 20, N-(5-Aminopentanoyl)-5-chloro-N-({(5S)-2-oxo-3-[4-(3-oxomorpholin-4-yl)phenyl]-1,3-oxazolidin-5-yl}methyl)thiophene-2-carboxamide hydrochloride], in series [1] (buffer pH 4, 37° C.), the “% test substance after 4 h” value is given as 98% and the “% Test substance after 24 h” value stood at 90%. Further, in series [1] (buffer pH 7.4, 37° C.), the “% test substance after 4 h” value stood at 0% and the “% Test substance after 24 h” value was found to be 0%. For the same compound, the half-life at 0.2 mg/ml in series [4] was under 2 min. In series [3] (setting [6]), the solubility at 24 h is over 3000 µg/mL.
Consider `NCCCCCC(=O)N(C[C@H]1CN(c2ccc(N3CCOCC3=O)cc2)C(=O)O1)C(=O)c1ccc(Cl)s1` [Example 21, N-(6-Aminohexanoyl)-5-chloro-N-({(5S)-2-oxo-3-[4-(3-oxomorpholin-4-yl)phenyl]-1,3-oxazolidin-5-yl}methyl)thiophene-2-carboxamide hydrochloride], for which, in series [1] (buffer pH 4, 37° C.), the “% test substance after 4 h” value is reported as 100% and the “% Test substance after 24 h” value was 100%. Also, in series [1] (buffer pH 7.4, 37° C.), the “% test substance after 4 h” value is recorded as 92% and the “% Test substance after 24 h” value was found to be 66%. Besides, the solubility at 24 h in series [3] (setting [6]) is over 3000 µg/mL.
On to `CCCCNCCCC(=O)N(C[C@H]1CN(c2ccc(N3CCOCC3=O)cc2)C(=O)O1)C(=O)c1ccc(Cl)s1` [Example 22, N-[4-(Butylamino)butanoyl]-5-chloro-N-({(5S)-2-oxo-3-[4-(3-oxomorpholin-4-yl)phenyl]-1,3-oxazolidin-5-yl}methyl)thiophene-2-carboxamide hydrochloride], for which, in series [1] (buffer pH 4, 37° C.), the “% test substance after 4 h” value was determined as 100% and the “% Test substance after 24 h” value was 98%. Moreover, in series [4], the half-life at 0.2 mg/ml is under 2 min. Also, the solubility at 24 h in series [3] (setting [6]) was over 3000 µg/mL.
For `NCCOCC(=O)N(C[C@H]1CN(c2ccc(N3CCOCC3=O)cc2)C(=O)O1)C(=O)c1ccc(Cl)s1` [Example 23, N-[(2-Aminoethoxy)acetyl]-5-chloro-N-({(5S)-2-oxo-3-[4-(3-oxomorpholin-4-yl)phenyl]-1,3-oxazolidin-5-yl}methyl)thiophene-2-carboxamide hydrochloride], the half-life at 0.2 mg/ml in series [4] was under 2 min.
